# Target: Histone acetyltransferase KAT6A (UniProt Q92794)
# Test: KAT6A Biochemical Assay
# Description: TR-FRET is homogeneous proximity assay where Europium-labelled anti-acetyl lysine antibody binds to the acetylated substrate labelled with biotin which in turn binds to streptavidin labelled APC fluorescence acceptor. Europium can transfer energy to APC in the complex and the interaction of two dye-labelled binding partners is detected by the energy transfer between a donor and an acceptor dye, and the subsequent light emission by the acceptor dye. KAT6A transfer an acetyl group from acetyl CoA to lysine amino acids of histones/target proteins. Typically, 5 μL of human-KAT6A (MYST domain 507-778 aa) in assay buffer (100 mM Tris HCl (pH 7.8), 15 mM NaCl, 1 mM EDTA, 0.01% Tween-20, 0.02% BSA, 1 mM DTT) is added to 384-well plate containing 5 μL of selected test compound in final 1% DMSO, serially diluted in 1:3 in an 8-10-point titration. The selected compound of the present invention and enzyme are incubated for 30 min at room temperature. Next, 5 μL of substrate mix containing histone H4 peptide and acetyl-CoA in assay buffer is added to the plate. The final concentrations of H4 peptide and acetyl-CoA are 200 nM and 600 nM respectively. […] The plate is further incubated for 45 min at room temperature and is read in TR-FRET mode (Ex:340 nm; Em: 615 nm and 665 nm) on a plate reader.
# Histone acetyltransferase KAT6A, sequence (Q92794 whole entry): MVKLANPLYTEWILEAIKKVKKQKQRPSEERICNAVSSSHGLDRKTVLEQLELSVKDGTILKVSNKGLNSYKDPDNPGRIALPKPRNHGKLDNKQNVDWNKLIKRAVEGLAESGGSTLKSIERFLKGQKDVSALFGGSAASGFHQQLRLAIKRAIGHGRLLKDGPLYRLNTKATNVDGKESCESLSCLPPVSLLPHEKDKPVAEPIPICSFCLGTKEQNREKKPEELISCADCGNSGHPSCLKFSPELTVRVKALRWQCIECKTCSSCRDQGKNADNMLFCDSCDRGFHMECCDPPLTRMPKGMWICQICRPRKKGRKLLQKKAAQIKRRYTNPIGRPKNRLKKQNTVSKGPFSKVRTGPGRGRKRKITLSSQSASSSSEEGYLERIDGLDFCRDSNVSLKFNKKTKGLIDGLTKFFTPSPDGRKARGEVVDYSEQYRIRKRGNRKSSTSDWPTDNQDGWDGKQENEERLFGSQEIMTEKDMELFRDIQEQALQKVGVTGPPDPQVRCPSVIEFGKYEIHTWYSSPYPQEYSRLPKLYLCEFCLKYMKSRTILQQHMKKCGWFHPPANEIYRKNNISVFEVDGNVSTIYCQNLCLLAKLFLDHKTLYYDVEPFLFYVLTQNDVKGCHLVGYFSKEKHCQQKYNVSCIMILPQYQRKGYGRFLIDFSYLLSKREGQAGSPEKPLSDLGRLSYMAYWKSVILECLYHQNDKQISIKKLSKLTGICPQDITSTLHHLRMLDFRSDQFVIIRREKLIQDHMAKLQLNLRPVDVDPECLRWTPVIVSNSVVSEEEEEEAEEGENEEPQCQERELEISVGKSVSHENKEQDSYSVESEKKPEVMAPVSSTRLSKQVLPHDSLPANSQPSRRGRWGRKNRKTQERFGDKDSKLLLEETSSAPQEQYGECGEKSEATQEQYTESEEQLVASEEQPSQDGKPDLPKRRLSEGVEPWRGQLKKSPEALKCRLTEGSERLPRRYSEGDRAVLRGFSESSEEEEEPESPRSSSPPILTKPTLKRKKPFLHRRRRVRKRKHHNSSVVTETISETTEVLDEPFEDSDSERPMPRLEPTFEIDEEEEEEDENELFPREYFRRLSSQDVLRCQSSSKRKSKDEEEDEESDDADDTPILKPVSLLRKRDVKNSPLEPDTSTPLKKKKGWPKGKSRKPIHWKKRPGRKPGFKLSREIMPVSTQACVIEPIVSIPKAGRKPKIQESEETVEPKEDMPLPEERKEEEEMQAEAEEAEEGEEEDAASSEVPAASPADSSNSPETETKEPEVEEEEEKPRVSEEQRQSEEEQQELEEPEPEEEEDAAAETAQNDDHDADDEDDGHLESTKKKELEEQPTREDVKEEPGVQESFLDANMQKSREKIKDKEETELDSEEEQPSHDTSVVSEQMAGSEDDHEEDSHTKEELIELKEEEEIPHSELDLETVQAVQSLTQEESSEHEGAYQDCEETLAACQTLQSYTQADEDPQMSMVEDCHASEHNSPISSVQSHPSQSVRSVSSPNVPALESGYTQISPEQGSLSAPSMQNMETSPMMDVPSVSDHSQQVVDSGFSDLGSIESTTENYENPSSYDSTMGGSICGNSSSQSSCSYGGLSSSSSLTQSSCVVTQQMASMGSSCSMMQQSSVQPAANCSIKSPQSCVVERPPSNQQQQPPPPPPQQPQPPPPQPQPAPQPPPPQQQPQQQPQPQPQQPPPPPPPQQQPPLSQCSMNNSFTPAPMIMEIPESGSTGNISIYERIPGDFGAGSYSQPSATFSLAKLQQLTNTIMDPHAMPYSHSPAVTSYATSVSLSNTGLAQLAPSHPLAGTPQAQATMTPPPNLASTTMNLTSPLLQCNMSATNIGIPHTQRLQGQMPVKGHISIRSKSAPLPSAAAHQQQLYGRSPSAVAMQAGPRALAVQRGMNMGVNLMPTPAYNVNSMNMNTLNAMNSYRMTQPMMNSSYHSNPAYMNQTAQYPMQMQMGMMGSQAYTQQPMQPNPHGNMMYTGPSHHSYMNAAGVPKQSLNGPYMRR
smiles,measurement,value
"COc1cccc(OC)c1S(=O)(=O)Nc1noc2cc(-c3cscc3C)c3c(c12)OCC3 [US20250059204, Compound 14]",IC50,156 nM
"COc1cccc(OC)c1S(=O)(=O)Nc1noc2cc(Cn3cccn3)c3c(c12)OC(C)(C)C3 [US20250059204, Compound 56]",IC50,43 nM

# From BindingDB's records for patent US20250059204 (Aurigene Oncology, 2025)
